Assays:
[1] = Body weight and physical signs during therapy; type: in vivo, CPC; Apc mice; details: vs no treatment (NSS) and plain rapamycin micelles
Method: The number of mice (number of adenomas) at the end of the study were n=5 (20), 6 (24), 5 (22), and 7 (21), respectively. Two mice (one in NSS group and one in unlabeled (plain) rapamycin micelle group) died from unexplained cause. […] Mice underwent endoscopy every ˜4 days to monitor adenoma regression and were weighed every 2 days for 5 weeks. A total of n=230 colonoscopy examinations was performed.
A linear mixed effects regression models was used to assess efficacy and toxicity. An interaction between treatment groups and time (days) was estimated in the model to compare adenoma regression rates among the different rapamycin formulations. The model has two random effects to incorporate a correlation between data measured on the same adenoma and a correlation between adenomas found within the same animal. For weights, only one random effect was used to model the correlation between data from the same animal. A comparison was considered significant if P<0.01 to adjust for multiple comparisons. All analyses were performed using SAS ver 9.3. Unless stated otherwise, all data were tested for normality. A one-way ANOVA or non-parametric Kruskal-Wallis was used to determined statistical significance for comparisons among more than 2 groups. If there was at least one difference between treatment groups, multiple comparisons were used to search for pairwise differences. […]

[2] = mouse, in vivo
Method: All tissues (heart, spleen, kidney, liver, and colon) were fixed in phosphate-buffered formalin for 24 h, paraffin-embedded, and cut in 10 μm sections. Routine histology (H&E) was performed. Renal toxicity was assessed after completion of therapy. Histology (H&E) from representative murine kidney sections (n=4) from the different treatment groups were evaluated for tubules with vacuoles on five random fields (400× magnification) for each specimen.

colonic adenomas = test: In vivo fluorescence endoscopy of Cy5.5-labeled peptides binding to colonic adenomas; parameters: species or system CPC; Apc mouse; details: Cy5.5-labeled peptide, 200 μM via tail vein, 1 hour circulation
Source text: Our laboratory has previously identified a group of peptides that bind specifically to colonic adenomas in the CPC; Apc mouse. Peptides […] (SEQ ID NO: 3), KCCFPAQ (SEQ ID NO: 9), LTTHYKL (SEQ ID NO: 18), and AKPGYLS (SEQ ID NO: 17) were identified using phage display technology. Peptides YTTTNAS (SEQ ID NO: 64) and DNEPIAQ (SEQ ID NO: 65) were included as controls. These peptides were identified based on an unbiased screen of cells and tissues to maximize specific binding in vivo. The peptides were labeled with Cy5.5 and injected via tail vein at a concentration of 200 μM in 1×PBS. The peptides were allowed to circulate for 1 hour to allow for non-specific binding to clear. The colon was rinsed again with tap water. Fluorescence images were then collected. […] Fluorescence images for each adenoma were analyzed by defining a region of interest (ROI) around the adenoma and adjacent normal-appearing mucosa using ImageJ software. The mean values were calculated for each ROI, and the T/B ratio was determined. The mean T/B ratio for each peptide was calculated, and Kruskal-Wallis and Dunn's multiple comparison tests were used to determine statistical differences. […]
We performed in vivo imaging of colon in CPC; Apc mice to select the peptide to label the micelles. […] Adenomas with diameter of >1.5 mm were identified, and the location from the anus was recorded. […]

Row | Compound | body weight [1] | renal toxicity: number of vacuolated tubules per high-power field [2] | target-to-background (T/B) ratio, in vivo fluorescence (colonic adenomas) | target-to-background (T/B) ratio, in vivo fluorescence (colonic adenomas; listed as LTTHYKL)
1 | CO[C@H]1C[C@@H]2CC[C@@H](C)[C@@](O)(O2)C(=O)C(=O)N2CCCC[C@H]2C(=O)O[C@H]([C@H](C)C[C@@H]2CC[C@@H](O)[C@H](OC)C2)CC(=O)[C@H](C)/C=C(\C)[C@@H](O)[C@@H](OC)C(=O)[C@H](C)C[C@H](C)/C=C/C=C/C=C/1C [free rapamycin, Rapamycin] | gained more weight | significantly greater number of vacuoles |  | 
2 | LTTHYKL (SEQ ID NO: 18) [LTT*] |  |  | strongest binding | highest mean value
